For 53 compounds, chromatographic logP and pest or weed control results are on record in US9428487B2, “Heteroaromatic amides and thioamides as pesticides” (Bayer Intellectual Property GmbH, priority 2008, dated 2016).

Data set [1] is described as follows: Determination of log P values by HPLC on reversed-phase column (formic acid method). The settings on record: reversed-phase HPLC column (C 18), pH 3.4, HPLC, reversed-phase C 18, acidic range (pH 3.4), formic acid eluents, 55° C.; read-out: logP (HCOOH). It counts as physicochemical. The protocol:
1) Description of Method for Determining the Log P Values (Formic Acid Method)
The log P values reported in the table were determined according to EEC-Directive 79/831 Annex V.A8 by HPLC (High Performance Liquid Chromatography) on a reversed-phase column (C 18). […]
Eluent A: acetonitrile+1 ml of formic acid/liter. Eluent B: water+0.9 ml of formic acid/liter.
Gradient: from 10% eluent A/90% eluent B to 95% eluent A/5% eluent B in 4.25 min
The calibration was effected with unbranched alkan-2-ones (with 3 to 16 carbon atoms), whose log P values are known (determination of the log P values on the basis of the retention times by linear interpolation between two successive alkanones). The lambda-max values were determined with reference to the UV spectra from 200 nm to 400 nm in the maxima of the chromatographic signals.

Data set [2] deals with green peach aphid (Myzus persicae). Nature of the data set: Myzus test. In kind it is in vivo. As to conditions: application rate 500 g/ha, spray on Chinese cabbage leaf slices, read-out: efficacy (aphids killed). As to the method: • Solvent: 78.0 parts by weight of acetone • 1.5 parts by weight of dimethylformamide • Emulsifier: 0.5 part by weight of alkylaryl polyglycol ether
To produce an appropriate active ingredient formulation, 1 part by weight of active ingredient is mixed with the amounts of solvent and emulsifier specified and the concentrate is diluted to the desired concentration with emulsifier-containing water.
Chinese cabbage leaf slices (Brassica pekinensis) infested by all stages of the green peach aphid (Myzus persicae) are sprayed with an active ingredient formulation of the desired concentration.
After the desired time, the efficacy in % is determined 100% means that all aphids have been killed; 0% means that no aphids have been killed.

Structures are written as SMILES.

As to `Cc1nc(-c2cccnc2)sc1C(=O)N(CC#N)C(=O)C1(F)CC1` [Compound 140], the chromatographic logP in data set [1] was 1.93. The pest or weed control at 500 g/ha in data set [2] was at least 70%.
The corresponding values for `Cc1nc(CNC(=O)c2cc(-c3cccnc3)nn2C)no1` [Compound 26] are 0.54 and at least 70%.
Taken in the same sequence, the figures for `Cc1nc(-c2cccnc2)sc1C(=O)N(CCCF)CC(F)(F)F` [Compound 124] were 2.11 and at least 70%.
The corresponding values for `CSC[C@H](C)NC(=O)c1sc(-c2cccnc2)nc1C` [Compound 56] are 1.68 and at least 70%.
For the compound `O=C(NCc1ncccn1)c1cnc(-c2cccnc2)s1` [Compound 112], the chromatographic logP in data set [1] turned out to be 0.81. Moreover, in data set [2], the pest or weed control at 500 g/ha is at least 70%.
Taken in the same sequence, the figures for `CCN(CC1CCCO1)C(=O)c1sc(-c2cccnc2)nc1C` (stereo not shown) [Compound 187] were 1.64 and at least 70%.
With `Cc1nc(-c2cncc(Br)c2)sc1C(=O)NCC(F)(F)F` [Compound 16], the chromatographic logP in data set [1] was determined as 2.61. The pest or weed control at 500 g/ha in data set [2] is at least 70%.
The corresponding values for `Cc1nc(-c2cccnc2)sc1C(=O)NC1(C#N)CC1` [Compound 66] are 1.2 and at least 70%.
The corresponding values for `Cc1nc(-c2cccnc2)sc1C(=O)N(C)CCC#N` [Compound 163] are 1.1 and at least 70%.
In the case of `Cc1nc(-c2cccnc2)sc1C(=O)NCCC#N` [Compound 150], the chromatographic logP in data set [1] was 1.19. In addition, the pest or weed control at 500 g/ha in data set [2] was at least 70%.
Take `Cc1nc(-c2cccnc2)sc1C(=O)N(C)Cc1ccccn1` [Compound 93]: the chromatographic logP in data set [1] is 1.19. Also, in data set [2], the pest or weed control at 500 g/ha is at least 70%.
Regarding `Cc1nc(-c2cccnc2)sc1C(=O)NCC(F)F` [Compound 57], in data set [1], the chromatographic logP is 1.34. For the same compound, in data set [2], the pest or weed control at 500 g/ha was at least 70%.
Taken in the same sequence, the figures for `COCN(CCF)C(=O)c1sc(-c2cccnc2)nc1C` [Compound 113] were 1.46 and at least 70%.
Taken in the same sequence, the figures for `COCN(CC(F)(F)F)C(=O)c1sc(-c2cccnc2)nc1C` [Compound 69] were 2.06 and at least 70%.
Taken in the same sequence, the figures for `Cc1nc(-c2cccnc2)sc1C(=O)NCC(F)(Cl)Cl` [Compound 96] were 1.98 and at least 70%.
Regarding `Cc1nc(-c2cccnc2)sc1C(=O)NC(C)(C)C#N` [Compound 52], the chromatographic logP in data set [1] came to 1.48. The pest or weed control at 500 g/ha in data set [2] is at least 70%.
The corresponding values for `Cc1nc(-c2cccnc2)sc1C(=O)NCC1CCCCC1` [Compound 153] are 2.43 and at least 70%.
Taken in the same sequence, the figures for `Cc1nc(-c2cccnc2)sc1C(=O)NCC(C)(F)F` [Compound 36] were 1.59 and at least 70%.
The corresponding values for `Cc1nc(-c2cccnc2)sc1C(=O)N(C)CCF` [Compound 85] are 1.23 and at least 70%.
`Cc1nc(-c2cccnc2)sc1C(=O)N(CC#N)C(C)C` [Compound 142]: the chromatographic logP in data set [1] turned out to be 1.56. Besides, the pest or weed control at 500 g/ha in data set [2] is at least 70%.
Taken in the same sequence, the figures for `Cc1nc(-c2cccnc2)sc1C(=O)NCC1COC(C)(C)O1` (stereo not shown) [Compound 155] were 1.48 and at least 70%.
Taken in the same sequence, the figures for `CC(c1ccccn1)N(C)C(=O)c1cnc(-c2cccnc2)s1` (stereo not shown) [Compound 154] were 1.21 and at least 70%.
In the case of `CCON(C)C(=O)c1cnc(-c2cccnc2)s1` [Compound 173], the chromatographic logP in data set [1] turned out to be 1.5. Besides, the pest or weed control at 500 g/ha in data set [2] was at least 70%.
Taken in the same sequence, the figures for `COC1(NC(=O)c2sc(-c3cccnc3)nc2C)CC1` [Compound 129] were 1.23 and at least 70%.
Taken in the same sequence, the figures for `Cc1nc(-c2cccnc2)sc1C(=O)NC(C#N)C(C)C` (stereo not shown) [Compound 63] were 1.85 and at least 70%.
The corresponding values for `Cc1nc(-c2cccnc2)sc1C(=O)NCC(F)(F)Br` [Compound 121] are 1.98 and at least 70%.
As for `Cc1nc(-c2cccnc2)sc1C(=O)N(CC(F)(F)F)C(=O)C1(F)CC1` [Compound 58], in data set [1], the chromatographic logP is 2.77. Further, in data set [2], the pest or weed control at 500 g/ha is at least 70%.
Turning to `Cc1nc(-c2cccnc2)sc1C(=O)NC1(c2ccccn2)CC1` [Compound 167], the chromatographic logP in data set [1] stood at 0.97. The pest or weed control at 500 g/ha in data set [2] was at least 70%.
Taken in the same sequence, the figures for `Cc1nc(-c2cccnc2)sc1C(=O)NCC(Cl)(Cl)Cl` [Compound 100] were 2.17 and at least 70%.
Taken in the same sequence, the figures for `Cc1nc(-c2cccnc2)sc1C(=O)NC(C)c1nn(C)c(=O)n1C` (stereo not shown) [Compound 151] were 1.01 and at least 70%.
Taken in the same sequence, the figures for `Cc1nc(-c2cccnc2)sc1C(=O)NCc1ncccn1` [Compound 40] were 1.05 and at least 70%.
Turning to `Cc1nc(-c2cccnc2)sc1C(=O)NCCF` [Compound 53], the chromatographic logP in data set [1] was found to be 1.11. Also, in data set [2], the pest or weed control at 500 g/ha was at least 70%.
Taken in the same sequence, the figures for `CCN(CC#N)C(=O)c1cnc(-c2cccnc2)s1` [Compound 137] were 1.28 and at least 70%.
Taken in the same sequence, the figures for `Cc1nc(-c2cccnc2)sc1C(=O)NN1CCCCC1` [Compound 202] were 1.39 and at least 70%.
Taken in the same sequence, the figures for `Cc1nc(-c2cccnc2)sc1C(=O)NC(C)(C)C(F)(F)F` [Compound 182] were 2.24 and at least 70%.
In the case of `Cc1nc(-c2cccnc2)sc1C(=O)NCC1COCCO1` (stereo not shown) [Compound 50], the chromatographic logP in data set [1] was 0.8. Moreover, the pest or weed control at 500 g/ha in data set [2] is at least 70%.
Taken in the same sequence, the figures for `Cc1nc(-c2cccnc2)sc1C(=O)NC1CSC1` [Compound 194] were 1.47 and at least 70%.
The corresponding values for `Cc1nc(-c2cccnc2)sc1C(=O)N(C)CC(C)(F)F` [Compound 35] are 1.65 and at least 70%.
The corresponding values for `CSCC(C)(C)NC(=O)c1sc(-c2cccnc2)nc1C` [Compound 73] are 2.05 and at least 70%.
As for `Cc1nc(CNC(=O)c2sc(-c3cccnc3)nc2C)no1` [Compound 38], the chromatographic logP in data set [1] came to 1.21. In data set [2], the pest or weed control at 500 g/ha was at least 70%.
Take `CCOC(CNC(=O)c1sc(-c2cccnc2)nc1C)OCC` [Compound 108]: the chromatographic logP in data set [1] stood at 1.78. In addition, the pest or weed control at 500 g/ha in data set [2] is at least 70%.
Taken in the same sequence, the figures for `Cc1nc(-c2cccnc2)sc1C(=O)NC(C)C(F)(F)F` (stereo not shown) [Compound 168] were 1.89 and at least 70%.
Taken in the same sequence, the figures for `Cc1nc(-c2cccnc2)sc1C(=O)NC(C(C)C)C(F)(F)F` (stereo not shown) [Compound 146] were 2.48 and at least 70%.
Taken in the same sequence, the figures for `CSC[C@H](C)N(C)C(=O)c1sc(-c2cccnc2)nc1C` [Compound 71] were 1.71 and at least 70%.
For `Cc1nc(-c2cccnc2)sc1C(=O)NCC1CCCO1` (stereo not shown) [Compound 103], the chromatographic logP in data set [1] is 1.4. In data set [2], the pest or weed control at 500 g/ha is at least 70%.
Taken in the same sequence, the figures for `Cc1nc(-c2cccnc2)sc1C(=O)NN(C)Cc1ccccn1` [Compound 200] were 1.01 and at least 70%.
Taken in the same sequence, the figures for `COCN(Cc1cc(C)on1)C(=O)c1sc(-c2cccnc2)nc1C` [Compound 119] were 1.71 and at least 70%.
As to `Cc1nc(-c2cccnc2)sc1C(=O)N[C@@H]1C[C@@H]1F` [Compound 83], the chromatographic logP in data set [1] was 1.16. The pest or weed control at 500 g/ha in data set [2] is at least 70%.
`Cc1nc(-c2cccnc2)sc1C(=O)NCc1ccncc1` [Compound 169]: the chromatographic logP in data set [1] stood at 0.69. Further, in data set [2], the pest or weed control at 500 g/ha is at least 70%.
The corresponding values for `Cn1nc(-c2cccnc2)cc1C(=O)NCC(F)(F)F` [Compound 31] are 1.04 and at least 70%.
As for `Cc1nc(-c2cccnc2)sc1C(=O)NC(C)C1=NOCCO1` (stereo not shown) [Compound 49], the chromatographic logP in data set [1] stood at 1.27. In data set [2], the pest or weed control at 500 g/ha was at least 70%.
Taken in the same sequence, the figures for `CN(CC(C)(F)F)C(=O)c1cc(-c2cccnc2)nn1C` [Compound 27] were 0.99 and at least 70%.
The corresponding values for `COC(C)(CNC(=O)c1sc(-c2cccnc2)nc1C)OC` [Compound 174] are 1.44 and at least 70%.
